US10774113B2, “Anti-infective compound” (priority 2015, dated 2020)

System: Staphylococcus aureus USA 300 (LAC)
Experiment: MIC assay
Assay type: cell-based
Description: MIC determinations and killing assays were performed in Mueller Hinton Broth (MHB; Roth, Karlsruhe, Germany).
S. aureus RN4220, S. aureus USA300 (LAC), S. aureus USA300 (NRS384), S. aureus SA113, S. aureus Mu50, E. coli DH5α and P. aeruginosa PAO1 were grown overnight in MHB. […] All strains were incubated at 37° C. under continuous shaking. Early log-phase grown bacteria were adjusted in MHB to 1×10^6 cells/well in microtiter plates (MTP), mixed with varying concentrations of the antibiotic and incubated at 37° C. for 24 h under continuous shaking. […] The assays were performed in 96-well microtiter plates.
MIC assays for the antibiotics used in this study were performed as described above. […] Fresh MHB was inoculated 1:10,000 with an overnight culture of S. aureus USA300 LAC and was incubated at 37° C. under continuous shaking. Cells were grown to early log phase, adjusted to 1×10^6 cells/mL, and dispensed into 96-well MTPs with 100 μL per well. […] After 24 h incubation at 37° C. under continuous shaking, growth was determined with a microplate reader at an OD600 and cells from the second highest concentration of 0.25×MIC, 0.5×MIC, 1×MIC, 1.5×MIC, 2×MIC and 4×MIC from the appropriate antibiotic.

SMILES: CO[C@H]1/C=C/O[C@@]2(C)Oc3c(C)c(O)c4c(O)c(c(/C=N/N5CCN(C)CC5)c(O)c4c3C2=O)NC(=O)/C(C)=C\C=C\[C@H](C)[C@H](O)[C@@H](C)[C@@H](O)[C@@H](C)[C@H](OC(C)=O)[C@@H]1C [rifampicin]
- 1×MIC against S. aureus USA300: 0.01 µg/mL
